Tests used:
Test in all cases: FLIPR membrane potential
Format in all cases: cell-based
Details in all cases: concentration used for PAM testing
[1] = target: T1, human α1β2δ GABAA receptor (Homo sapiens, UniProt O14764+P14867+P47870)
T1 sequence (P14867 28-456): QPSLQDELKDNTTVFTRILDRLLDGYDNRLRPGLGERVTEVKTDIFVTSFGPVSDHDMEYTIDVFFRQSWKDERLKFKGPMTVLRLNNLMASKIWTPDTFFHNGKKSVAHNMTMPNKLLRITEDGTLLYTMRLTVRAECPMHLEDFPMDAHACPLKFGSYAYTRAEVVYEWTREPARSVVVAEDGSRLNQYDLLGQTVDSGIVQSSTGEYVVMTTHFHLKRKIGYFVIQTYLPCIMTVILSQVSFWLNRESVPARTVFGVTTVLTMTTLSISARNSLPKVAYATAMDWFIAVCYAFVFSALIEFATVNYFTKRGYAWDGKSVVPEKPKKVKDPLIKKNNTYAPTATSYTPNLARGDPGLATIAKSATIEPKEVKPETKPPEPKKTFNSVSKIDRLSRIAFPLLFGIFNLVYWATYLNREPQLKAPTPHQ
T1 sequence (P47870 25-512 limits assumed): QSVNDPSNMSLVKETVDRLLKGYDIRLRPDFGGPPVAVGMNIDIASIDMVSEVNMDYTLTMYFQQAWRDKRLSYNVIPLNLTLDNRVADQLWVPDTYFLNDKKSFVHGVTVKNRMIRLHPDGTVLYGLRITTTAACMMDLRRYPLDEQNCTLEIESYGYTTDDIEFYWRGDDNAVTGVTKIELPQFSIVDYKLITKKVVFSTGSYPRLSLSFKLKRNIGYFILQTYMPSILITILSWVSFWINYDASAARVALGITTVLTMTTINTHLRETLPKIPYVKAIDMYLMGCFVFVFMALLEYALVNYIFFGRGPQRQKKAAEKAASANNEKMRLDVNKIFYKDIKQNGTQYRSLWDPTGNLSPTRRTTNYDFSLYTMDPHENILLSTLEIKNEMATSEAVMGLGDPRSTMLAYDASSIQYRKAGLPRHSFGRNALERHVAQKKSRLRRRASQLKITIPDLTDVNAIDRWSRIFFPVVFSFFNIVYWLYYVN
T1 sequence (O14764 17-452 limits assumed): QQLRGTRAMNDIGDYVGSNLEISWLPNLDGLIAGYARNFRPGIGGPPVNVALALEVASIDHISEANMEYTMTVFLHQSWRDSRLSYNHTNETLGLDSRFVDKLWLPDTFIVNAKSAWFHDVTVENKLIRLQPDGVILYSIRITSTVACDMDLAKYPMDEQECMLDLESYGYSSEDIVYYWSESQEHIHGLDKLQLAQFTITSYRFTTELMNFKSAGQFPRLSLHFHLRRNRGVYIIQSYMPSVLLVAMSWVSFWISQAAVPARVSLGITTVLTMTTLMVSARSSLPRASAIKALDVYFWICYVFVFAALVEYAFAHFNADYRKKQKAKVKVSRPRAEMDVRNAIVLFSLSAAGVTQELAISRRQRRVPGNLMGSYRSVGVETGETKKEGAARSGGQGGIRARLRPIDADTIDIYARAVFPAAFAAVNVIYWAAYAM

[2] = target: human α4β2δ GABAA receptor (Homo sapiens, UniProt O14764+P47870+P48169)
Chain of human α4β2δ GABAA receptor (P48169 36-554, one chain of several): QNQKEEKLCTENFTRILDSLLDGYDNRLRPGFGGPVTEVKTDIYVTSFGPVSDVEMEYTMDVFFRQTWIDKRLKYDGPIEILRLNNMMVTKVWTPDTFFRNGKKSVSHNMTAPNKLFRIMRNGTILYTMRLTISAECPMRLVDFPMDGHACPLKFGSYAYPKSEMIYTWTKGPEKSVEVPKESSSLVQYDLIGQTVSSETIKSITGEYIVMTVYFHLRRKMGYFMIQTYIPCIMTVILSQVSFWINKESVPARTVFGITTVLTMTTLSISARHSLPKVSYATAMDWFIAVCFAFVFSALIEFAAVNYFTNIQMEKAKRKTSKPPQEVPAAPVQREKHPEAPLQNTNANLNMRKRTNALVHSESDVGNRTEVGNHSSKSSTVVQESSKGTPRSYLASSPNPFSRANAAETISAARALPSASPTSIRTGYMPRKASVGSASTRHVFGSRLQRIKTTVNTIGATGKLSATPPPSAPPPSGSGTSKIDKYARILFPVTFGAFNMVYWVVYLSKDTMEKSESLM

[3] = target: human α6β2δ GABAA receptor (Homo sapiens, UniProt O14764+P47870+Q16445)
Chain of human α6β2δ GABAA receptor (Q16445 20-453, one chain of several): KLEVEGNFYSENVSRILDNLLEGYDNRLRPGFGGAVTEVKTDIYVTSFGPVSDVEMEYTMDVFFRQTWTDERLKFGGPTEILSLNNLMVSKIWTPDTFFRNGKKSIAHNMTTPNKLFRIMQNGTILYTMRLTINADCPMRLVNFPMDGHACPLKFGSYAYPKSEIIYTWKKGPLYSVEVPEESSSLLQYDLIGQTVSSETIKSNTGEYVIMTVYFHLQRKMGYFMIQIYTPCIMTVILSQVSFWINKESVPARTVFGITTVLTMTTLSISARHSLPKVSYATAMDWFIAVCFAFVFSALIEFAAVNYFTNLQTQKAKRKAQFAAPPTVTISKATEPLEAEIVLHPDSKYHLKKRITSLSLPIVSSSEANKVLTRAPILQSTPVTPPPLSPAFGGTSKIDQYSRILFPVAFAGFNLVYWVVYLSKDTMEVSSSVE

[4] = target: human α6β2γ2s GABAA receptor (Homo sapiens, UniProt P18507+P47870+Q16445)
Chain of human α6β2γ2s GABAA receptor (Q16445 20-453, one chain of several): as above
Chain of human α6β2γ2s GABAA receptor (P18507 40-467 isoform P18507-1 limits assumed, one chain of several): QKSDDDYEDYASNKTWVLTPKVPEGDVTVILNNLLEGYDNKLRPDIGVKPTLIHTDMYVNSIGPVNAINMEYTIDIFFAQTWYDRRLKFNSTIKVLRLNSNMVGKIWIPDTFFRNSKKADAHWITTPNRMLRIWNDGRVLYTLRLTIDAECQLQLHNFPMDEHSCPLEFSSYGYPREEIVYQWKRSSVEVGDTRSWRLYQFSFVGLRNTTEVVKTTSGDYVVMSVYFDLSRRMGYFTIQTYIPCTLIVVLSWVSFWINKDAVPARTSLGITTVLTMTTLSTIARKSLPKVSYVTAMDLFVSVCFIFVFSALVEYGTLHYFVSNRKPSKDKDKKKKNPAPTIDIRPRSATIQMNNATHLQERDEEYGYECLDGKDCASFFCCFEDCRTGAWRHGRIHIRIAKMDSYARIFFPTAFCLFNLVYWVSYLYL

SMILES: NCCCC(=O)O [GABA, γ-Aminobutyric acid]
- GABA EC20 [1]: 1600 to 2000 nM
- GABA EC20 [2]: 80 nM
- GABA EC20 [3]: 50 nM
- GABA EC20 [4]: 100 to 200 nM

Source: publication PMC6648289 (ACS Omega, 2019)
